According to ChEMBL document CHEMBL1201862, “PubChem BioAssay data set” (2004):
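Cultured in 96-well plates, cells were exposed to test compound for 48 hours across five concentrations. GI50: concentration for 50% inhibition of growth.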 The source made the active and inactive calls. Cut-off read from the data, not from the text of the source: active = GI50 up to about 1.1 µM and inactive = higher.

Legend:
Test in all cases: NCI tumour cell line growth inhibition, 48 h
LOX IMVI = test system: LOX IMVI
T47D = test system: T47D
UO-31 = test system: UO-31
TK-10 = test system: TK-10
COLO 205 = test system: COLO 205
CAKI-1 = test system: CAKI-1
NCI/ADR-RES = test system: NCI/ADR-RES
SF-295 = test system: SF-295
SK-OV-3 = test system: SK-OV-3
SF-539 = test system: SF-539
SF-268 = test system: SF-268
SK-MEL-2 = test system: SK-MEL-2
ACHN = test system: ACHN
MCF7 = test system: MCF7
OVCAR-5 = test system: OVCAR-5
SK-MEL-5 = test system: SK-MEL-5
HT-29 = test system: HT-29
MDA-MB-435 = test system: MDA-MB-435
SNB-19 = test system: SNB-19
SR = test system: SR

Structure (SMILES)	GI50 (LOX IMVI)	GI50 (T47D)	GI50 (UO-31)	GI50 (TK-10)	GI50 (COLO 205)	GI50 (CAKI-1)	GI50 (NCI/ADR-RES)	GI50 (SF-295)	GI50 (SK-OV-3)	GI50 (SF-539)	GI50 (SF-268)	GI50 (SK-MEL-2)	GI50 (ACHN)	GI50 (MCF7)	GI50 (OVCAR-5)	GI50 (SK-MEL-5)	GI50 (HT-29)	GI50 (MDA-MB-435)	GI50 (SNB-19)	GI50 (SR)
CC1(Cc2cc3c(cc2C2(c4ccc([N+](=O)[O-])cc4)OCCO2)OCO3)OCCO1	> 100 µM (inactive)	> 100 µM (inactive)	34.3 µM (inactive)	> 100 µM (inactive)	67.6 µM (inactive)	63.5 µM (inactive)	87.9 µM (inactive)	> 100 µM (inactive)	> 100 µM (inactive)	> 100 µM (inactive)	> 100 µM (inactive)	68.4 µM (inactive)	93.3 µM (inactive)	51.8 µM (inactive)	> 100 µM (inactive)	41.7 µM (inactive)	> 100 µM (inactive)	98.2 µM (inactive)	> 100 µM (inactive)	–
NNC(=O)Cn1c2ccc(Br)cc2c2nc3ccccc3nc21	–	> 100 µM (inactive)	19.9 µM (inactive)	56 µM (inactive)	> 100 µM (inactive)	> 100 µM (inactive)	> 100 µM (inactive)	21.8 µM (inactive)	43.7 µM (inactive)	> 100 µM (inactive)	> 100 µM (inactive)	19.1 µM (inactive)	36.6 µM (inactive)	69.3 µM (inactive)	53.7 µM (inactive)	> 100 µM (inactive)	> 100 µM (inactive)	> 100 µM (inactive)	80 µM (inactive)	> 100 µM (inactive)
Cc1cc(S(=O)(=O)N/C(=C(\C#N)C(=O)c2ccccc2)[n+]2ccc(N(C)C)cc2)c([S-])cc1Cl	–	> 100 µM (inactive)	> 100 µM (inactive)	53.6 µM (inactive)	> 100 µM (inactive)	> 100 µM (inactive)	> 100 µM (inactive)	> 100 µM (inactive)	> 100 µM (inactive)	> 100 µM (inactive)	> 100 µM (inactive)	83 µM (inactive)	> 100 µM (inactive)	> 100 µM (inactive)	> 100 µM (inactive)	> 100 µM (inactive)	> 100 µM (inactive)	> 100 µM (inactive)	> 100 µM (inactive)	64.9 µM (inactive)
O=C1NC(N2CCOCC2)=N/C1=C\c1ccccc1O	> 100 µM (inactive)	> 100 µM (inactive)	> 100 µM (inactive)	> 100 µM (inactive)	> 100 µM (inactive)	> 100 µM (inactive)	> 100 µM (inactive)	> 100 µM (inactive)	> 100 µM (inactive)	> 100 µM (inactive)	> 100 µM (inactive)	> 100 µM (inactive)	> 100 µM (inactive)	> 100 µM (inactive)	> 100 µM (inactive)	> 100 µM (inactive)	> 100 µM (inactive)	> 100 µM (inactive)	> 100 µM (inactive)	–
Cc1cc(S(=O)(=O)N=C2N(Cc3ccccc3)CCN2Cc2ccccc2)c(S)cc1Cl	70.8 µM (inactive)	10.8 µM (inactive)	17.7 µM (inactive)	> 100 µM (inactive)	> 100 µM (inactive)	> 100 µM (inactive)	> 100 µM (inactive)	48.9 µM (inactive)	> 100 µM (inactive)	> 100 µM (inactive)	36 µM (inactive)	–	> 10 µM (inactive)	> 100 µM (inactive)	> 100 µM (inactive)	> 100 µM (inactive)	> 100 µM (inactive)	> 100 µM (inactive)	> 100 µM (inactive)	95.9 µM (inactive)
Cc1cc(Cl)ccc1NC(=O)/C(Cl)=C(/Cl)C(=O)O	19.9 µM (inactive)	22.8 µM (inactive)	> 100 µM (inactive)	17.5 µM (inactive)	28.4 µM (inactive)	18.3 µM (inactive)	29 µM (inactive)	> 100 µM (inactive)	> 100 µM (inactive)	23 µM (inactive)	52.8 µM (inactive)	–	19.3 µM (inactive)	21.4 µM (inactive)	19.5 µM (inactive)	50.7 µM (inactive)	22.9 µM (inactive)	20.6 µM (inactive)	> 100 µM (inactive)	15.1 µM (inactive)
FC(F)(Sc1ncc[nH]1)c1nc2ccccc2o1	–	> 100 µM (inactive)	> 100 µM (inactive)	> 100 µM (inactive)	> 100 µM (inactive)	> 100 µM (inactive)	> 100 µM (inactive)	> 100 µM (inactive)	> 100 µM (inactive)	> 100 µM (inactive)	> 100 µM (inactive)	> 100 µM (inactive)	> 100 µM (inactive)	> 100 µM (inactive)	> 100 µM (inactive)	> 100 µM (inactive)	> 100 µM (inactive)	> 100 µM (inactive)	–	> 100 µM (inactive)
BrCc1ccc(CBr)c2c1-c1c(CBr)ccc3ccc(CBr)c-2c13	> 100 µM (inactive)	> 100 µM (inactive)	> 100 µM (inactive)	> 100 µM (inactive)	–	–	> 100 µM (inactive)	> 100 µM (inactive)	> 100 µM (inactive)	56.9 µM (inactive)	> 100 µM (inactive)	> 100 µM (inactive)	> 100 µM (inactive)	> 100 µM (inactive)	> 100 µM (inactive)	–	> 100 µM (inactive)	> 100 µM (inactive)	> 100 µM (inactive)	46.2 µM (inactive)
O=C1NC(c2c(Cl)cccc2Cl)Nc2ccccc21 (stereo not drawn)	47.2 µM (inactive)	> 100 µM (inactive)	> 100 µM (inactive)	> 100 µM (inactive)	49.4 µM (inactive)	18.5 µM (inactive)	21.8 µM (inactive)	47.3 µM (inactive)	> 100 µM (inactive)	47.1 µM (inactive)	54.5 µM (inactive)	82.2 µM (inactive)	> 100 µM (inactive)	47.3 µM (inactive)	94.4 µM (inactive)	27 µM (inactive)	28.1 µM (inactive)	14.1 µM (inactive)	71.3 µM (inactive)	–
O=C1C=Cc2cscc21	35.8 µM (inactive)	27.5 µM (inactive)	26.2 µM (inactive)	42.5 µM (inactive)	47.4 µM (inactive)	27.4 µM (inactive)	28.8 µM (inactive)	49.4 µM (inactive)	> 100 µM (inactive)	> 100 µM (inactive)	92.5 µM (inactive)	79.1 µM (inactive)	34.5 µM (inactive)	15.3 µM (inactive)	–	81.7 µM (inactive)	35.5 µM (inactive)	48.5 µM (inactive)	78.2 µM (inactive)	–
Cc1ccc2c(c1)C(=O)/C(=C1/CCc3ccc(C)cc31)C2	> 100 µM (inactive)	14.7 µM (inactive)	> 100 µM (inactive)	> 100 µM (inactive)	57.9 µM (inactive)	–	> 100 µM (inactive)	> 100 µM (inactive)	> 100 µM (inactive)	54.7 µM (inactive)	> 100 µM (inactive)	> 100 µM (inactive)	> 100 µM (inactive)	> 100 µM (inactive)	> 100 µM (inactive)	> 100 µM (inactive)	> 100 µM (inactive)	> 100 µM (inactive)	87.5 µM (inactive)	35.6 µM (inactive)
Nc1nc(Cl)c(N)c(NCC2(CO)CCC(CCc3ccccc3)C2)n1 (stereo not drawn)	11.5 µM (inactive)	1.56 µM (inactive)	18.4 µM (inactive)	21.3 µM (inactive)	9.93 µM (inactive)	1.47 µM (inactive)	> 39.5 µM (inactive)	10.6 µM (inactive)	22.3 µM (inactive)	15.5 µM (inactive)	15.8 µM (inactive)	15.7 µM (inactive)	18.7 µM (inactive)	7.59 µM (inactive)	20.9 µM (inactive)	0.033 µM (active)	13.3 µM (inactive)	12.8 µM (inactive)	25.7 µM (inactive)	–
COc1cc([N+](=O)[O-])c(OC)c2c(Nc3ccc(S(=O)(=O)O)c4cc(S(=O)(=O)O)cc(S(=O)(=O)O)c34)cc(C)nc12	> 100 µM (inactive)	> 100 µM (inactive)	> 100 µM (inactive)	> 100 µM (inactive)	> 100 µM (inactive)	> 100 µM (inactive)	> 100 µM (inactive)	–	> 100 µM (inactive)	> 100 µM (inactive)	> 100 µM (inactive)	> 100 µM (inactive)	–	> 100 µM (inactive)	> 100 µM (inactive)	> 100 µM (inactive)	> 100 µM (inactive)	> 100 µM (inactive)	–	–
CC(NP(=O)(c1ccccc1)c1ccccc1)c1ccccc1 (stereo not drawn)	> 100 µM (inactive)	> 100 µM (inactive)	> 100 µM (inactive)	> 100 µM (inactive)	> 100 µM (inactive)	> 100 µM (inactive)	> 100 µM (inactive)	> 100 µM (inactive)	> 100 µM (inactive)	> 100 µM (inactive)	> 100 µM (inactive)	–	> 100 µM (inactive)	> 100 µM (inactive)	> 100 µM (inactive)	> 100 µM (inactive)	> 100 µM (inactive)	> 100 µM (inactive)	> 100 µM (inactive)	> 100 µM (inactive)
COc1cc(/C=C/c2ccccn2)cc(OC)c1OC	> 10 µM (inactive)	> 10 µM (inactive)	> 10 µM (inactive)	> 10 µM (inactive)	> 10 µM (inactive)	> 10 µM (inactive)	> 10 µM (inactive)	> 10 µM (inactive)	> 10 µM (inactive)	> 10 µM (inactive)	> 10 µM (inactive)	> 10 µM (inactive)	> 10 µM (inactive)	> 10 µM (inactive)	> 10 µM (inactive)	> 10 µM (inactive)	> 10 µM (inactive)	> 10 µM (inactive)	> 10 µM (inactive)	–
